Experimental data: patent US20240294478A1, “ANTI-CANCER COMPOUNDS AND METHODS OF USE” (YALE UNIVERSITY, priority 2021, published 2024)

Key:
[1] = tested on: LN229 MGMT−/MMR− intracranial tumors; assay: Orthotopic intracranial LN229 MGMT-/MMR- model; format: in vivo, mouse; conditions: 25 mg/kg IP M-F x 1 week as printed
Description: FIGS. 10A-10G. KL-50 is efficacious in an LN229 MGMT−/MMR− intracranial model and is well tolerated with limited myelosuppression at supratherapeutic doses. […] (FIG. 10B) Mean body change with SEM of mice during maximum tolerated dose experiment in non-tumor bearing mice. (FIGS. 10C-10G) Complete blood counts for mice pre-treatment and 7 days post-treatment with escalations of single dose KL-50 delivered PO. WBC lower limit of normal (LLN): 2.2 K/L; Neutrophils LLN: 0.42 K/L; Lymphocyte LLN: 1.7 K/L; RBC LLN: 3.47 M/L; Platelet LLN: 155 K/L. *, P<0.05; ****, P<0.0001.
Mouse Protocol for Intracranial Study. LN229 MGMT−/MMR− cells stably expressing firefly luciferase (lentivirus-plasmids from Cellomics Technology; PLV-10003), were injected intracranially using a stereotactic injector. Briefly, 1.5 million cells in […] PBS were injected into the brain and the mice were imaged weekly using the IVIS Spectrum In Vivo Imaging System (PerkinElmer) according to the manufacturer's protocol. Images were taken on a weekly basis and acquired 10 min post intraperitoneal injection with d-luciferin (150 mg/kg of animal mass). […] Quantification of BLI flux (photons/see) was made through the identification of a region of interest (ROI) for each tumor.

LN229 MGMT+ shPMS2 cells = assay: Short-term viability assay, LN229 MGMT+ shPMS2; format: cell-based; conditions: Homo sapiens, LN-229, Table III, read-out: IC50 against LN229 cell lines, MGMT MMR−
Description: The activity of KL-50 in MGMT-LN229 cells engineered to lack expression of other key MMR proteins including MSH6, MLH1, PMS2, and MSH3 was also confirmed. Western blotting was performed in LN229 MGMT+/−cells with stable expression of shRNA targeting MSH6, MLH1, PMS2, or MSH3 to confirm depletion of the shRNA targets. In shMSH6 cells, there was reduced expression of MSH2, and in shMLH1 cells, there was loss of PMS2, due to destabilization in the setting of loss of their heterodimeric partners. GAPDH serves as loading control. […] Short-term viability assay curves for KL-50 in LN229 MGMT+/−, MMR+/shMSH6 cells. […] Short-term viability assay curves for KL-50 in LN229 MGMT+/−, MMR+/shMLH1 cells. […] Short-term viability assay curves for KL-50 in LN229 MGMT+/−, MMR+/shPMS2 cells. […] Short-term viability assay curves for KL-50 in LN229 MGMT+/−, MMR+/shMSH3 cells.
MMR Protein shRNA Knockdown. pGIPZ lentiviral shRNA vectors targeting MSH2, MSH6, MLH1, PMS2, and MSH3 were purchased from Horizon Discovery (Table IV). […]
Short-term Cell Viability Assay. […] Cells were imaged on a Cytation 3 imaging reader (BioTek) and quantified using CellProfiler software. For in vitro short-term growth delay experiments, IC50 values were determined from the nonlinear regression equation, [inhibitor] vs normalized response with variable slope.

[2] = tested on: HCT116 cells complemented with chromosome 3 carrying wildtype MLH1 (+Chr3); assay: Short-term viability assay, HCT116 +Chr3 cells +/- O6BG; format: cell-based, human; conditions: with or without 10 μM O6BG pre-treatment
Description: FIG. 1B: Short-term viability assay curves for KL-50 in DLD1 MSH6-deficient cells pre-treated with 0.01% DMSO control (CTR) or 10 μM O^6BG (+O^6BG) for 1 h prior to KL-50 addition. […] Short-term viability assay curves for (FIG. 1E) KL-50 in HCT116 MLH1−/−cells or (FIG. 1F) HCT116 cells complemented with chromosome 3 carrying wildtype MLH1 (+Chr3) pre-treated with 0.01% DMSO control or 10 μM O^6BG (+O^6BG) for 1 h prior to KL-50 addition. […] For these figures, points, mean; error bars, SD; n>3 technical replicates.
(§1) Short-term Cell Viability Assay. Cells were seeded in 96-well plates at 1000 or 2000 cells/well and allowed to adhere at 23° C. for 60 min and then incubated overnight at 37° C. Cells were treated with indicated concentrations of compounds in triplicate for 4-6 days prior to fixation with 3.7% paraformaldehyde and nuclear staining with 1 μg/mL Hoechst 33342 dye. Cells were imaged on a Cytation 3 imaging reader (BioTek) and quantified using CellProfiler software. For in vitro short-term growth delay experiments, IC50 values were determined from the nonlinear regression equation, [inhibitor] vs normalized response with variable slope.

[3] = tested on: four isogenic LN229 glioblastoma cell lines; assay: Short-term cell viability assays, statements across the isogenic lines; format: cell-based, human; conditions: regardless of MMR status
Description: LN229 MGMT- and MGMT+ cell lines were a gift from B. Kaina (Johannes Gutenberg University Mainz, Mainz, Germany) and grown in Gibco® Duilbecco's Modified Eagle Medium with 10% fetal bovine serum (DMEM). For each compound tested, the relationship between MGMT status and MMR status and compound activity, in terms of IC50 values ([…]), was determined by the following method. On day 1, LN229 isogenic cells of varying MGMT and MMR status were seeded in 96 well format at a density of 2000 cells/well in 100 μL of DMEM media and allowed to adhere overnight. On day 2, a drug master plate was made with 100×the desired maximal concentration of test compound and serially diluted by 2 until 100×the minimal desired concentration, with one DMSO control. Then daughter plates were created with varied concentrations from 3-times the minimal concentration to 3-times the maximal desired concentration. Afterwards, 50 μL of daughter drug plate was added to 100 μL of the seeded cells for a final concentration of 1×in triplicate. Cells were allowed to grow for 6 days. On day 7, the cells were fixed, and stained with Hoechst nuclear dye and imaged to determine growth inhibition.
For each compound tested, the relationship between MGMT status and MMR status and compound activity, in terms of IC50 values (in μM), was determined. In addition, for each compound, the therapeutic index (TI) was calculated, according to the equation MGMT TI=IC50 (MGMT+/MMR+) divided by IC50 (MGMT−/MMR+). The T1 indicates the efficacy of a compound in treating the targeted MGMT-cancer cells as compared to potential for the same compound to damage, or have adverse effects against, normal cells which are MGMT+cells, The higher the value of the TI, the safer the compound is. […] MMR RI (resistance index)=IC50 (MGMT−/MMR−) divided by IC50 (MGMT−/MMR+). The higher the value of the RI, the less likely that resistance to the compound will develop.
as §1

SMILES	intracranial tumor growth (BLI) [1]	IC50 (LN229 MGMT+ shPMS2 cells) [µM]	cytotoxicity in HCT116 MLH1-complemented cells [2]	activity in MGMT+ cells, in words [3]
NC(=O)c1ncn2c(=O)n(CCF)nnc12 [KL-50]	effective	215 ± 16	induced selective tumor cell killing specifically in the setting of O^6BG-induced MGMT suppression	limited activity
Cn1nnc2c(C(N)=O)ncn2c1=O [TMZ, 4-methyl-5-oxo-2,3,4,6,8-pentazabicyclo[4.3.0]nona-2,7,9-triene-9-carboxamide, reference compound]	only transiently suppressed tumor growth	700 ± 58	enhanced sensitivity to TMZ, which was further potentiated by MGMT depletion	essentially inactive
